This is an account of results in US20170209375A1, “NANOPARTICLE FORMULATIONS OF LOW-WATER SOLUBILITY ACTIVES” (Bend Research, Inc., priority 2014, published 2017).

For data set [1] the following is noted: cited from earlier work.
Data set [2] is described as follows: pKa of counterions and active agents. To be noted: active vs its counterion; read-out: difference between the pKa of the active and the counterion. Type of data set: physicochemical.
The conditions of data set [3]: pH 6.5; cited from earlier work.
The mark [4] stands for this setting: counterion, first value of the cell, some values marked estimated.

Structures are written as SMILES. Values after ≈ are worked out from the molar mass of the structure shown. Values joined by “and” are separate entries in the source; they are usually repeats but may differ in a detail not shown here. Identical values can stand only once. Counter-ions that a name gives are not always drawn. Like-named read-outs stand apart in the source and are kept apart here.

On to `CC(C)CCC[C@@H](C)[C@H]1CC[C@H]2[C@@H]3CC=C4CC(OS(=O)(=O)O)CC[C@]4(C)[C@H]3CC[C@]12C` (stereo partly drawn) [Cholesteryl sulfate, cholesteryl sulfate], for which the pKa in data set [1] (setting [4]) is on record as below 1 estimated.

On to `O=C(CC(C(=O)OC1CCCCC1)S(=O)(=O)O)OC1CCCCC1` (stereo not drawn) [1,4-dicyclohexyloxy-1,4-dioxobutane-2-sulfonate], for which the pKa in data set [1] (setting [4]) was below 1 estimated.

Consider `COc1ccc(-c2ccc3cc(C(=O)O)ccc3c2)cc1C12CC3CC(CC(C3)C1)C2` [Adapalene, reference compound], for which the pKa in data set [2] is 5.2; in data set [1] (active agent), 4.2.

With `CC(C)c1ccc2c(c1)CC[C@H]1[C@](C)(CNCCNC[C@]3(C)CCC[C@]4(C)c5ccc(C(C)C)cc5CC[C@@H]34)CCC[C@]21C` [N^1,N^2-bis(((1 R,4aS,10aR)-7-isopropyl-1,4a-dimethyl-1,2,3,4,4a,9,10,10a-octahydrophenanthren-1-yl)methyl)ethane-1,2-diamine], the pKa in data set [1] (setting [4]) is given as 6.6.

In the case of `C#Cc1cccc(Nc2ncnc3cc(OCCOC)c(OCCOC)cc23)c1` [Erlotinib, N-(3-ethynylphenyl)-6,7-bis(2-methoxyethoxy) quinazolin-4-amine, reference compound], the pKa in data set [2] is at least 4.4; in data set [1] (active agent), 5.42 and 5.4. For the same molecule, the “solubility in phosphate buffered saline” value in data set [3] was 1 µg/mL (≈ 2.54 µM).

As to `CC(C)(C)c1ccc2c(S(=O)(=O)O)c(C(C)(C)C)ccc2c1` [2,6-di-tert-butylnaphthalene-1-sulfonate], in data set [1] (setting [4]), the pKa is given as −2.48.

For the molecule `CC(C)CCC[C@@H](C)[C@H]1CC[C@H]2[C@@H]3CC=C4C[C@@H](OP(=O)(O)O)CC[C@]4(C)[C@H]3CC[C@]12C` [Cholesteryl phosphate, cholesteryl phosphate], in data set [1] (setting [4]), the pKa is reported as below 2 estimated.

With `O=S(=O)(O)c1ccc2ccccc2c1` [2-Naphthalenesulfonate, 2-naphthalene sulfonate], the pKa in data set [1] (setting [4]) was 0.17.

In the case of `CC(C)(C)c1ccc2c(S(=O)(=O)O)c(C(C)(C)C)ccc2c1S(=O)(=O)O` [2,6-di-tert-butylnaphthalene-1,5-disulfonate], the pKa is listed as −2.32 in data set [1] (setting [4]) and −3.05 in data set [1] (counterion, second value printed in the same cell).

As to `c1ccc(CNCCNCc2ccccc2)cc1` [N,N′-dibenzylethylene diamine], in data set [1] (setting [4]), the pKa is 6.2.

With `Cc1c(C)c2c(c(C)c1OS(=O)(=O)O)CCC(C)(CCCC(C)CCCC(C)CCCC(C)C)O2` (stereo not drawn) [Tocopherol sulfate, tocopherol sulfate], the pKa in data set [1] (setting [4]) was below 1 estimated.

On to `CC(C)CCOC(=O)CC(C(=O)OCCC(C)C)S(=O)(=O)O` (stereo not drawn) [1,4-diisopentyloxy-1,4-dioxobutane-2-sulfonate], for which the pKa in data set [1] (setting [4]) was below 1 estimated.

For the molecule `c1ccc(CCNCc2ccccc2)cc1` [N-(benzyl)-2-phenylethan-1-amine], the pKa in data set [1] (setting [4]) is on record as 9.4.

For `Cc1c(C)c2c(c(C)c1OP(=O)(O)O)CCC(C)(CCCC(C)CCCC(C)CCCC(C)C)O2` (stereo not drawn) [Tocopherol phosphate, tocopherol phosphate], the pKa in data set [1] (setting [4]) is on record as below 2 estimated.
